This passage reports IC50 and AC50 results from ChEMBL document CHEMBL1201862, “PubChem BioAssay data set” (2004).

Test [1] addresses G-protein coupled receptor 35 (Homo sapiens, UniProt Q9HC97). The test is described as follows: SAR Analysis for the identification of Selective Antagonists of ERK1/2 Activity in GPR35-Overexpressing U2OS Cells. [Related pubchem assays: 2079, 2058 ]. It counts as functional, cell-based.
In test [2] the target is G-protein coupled receptor 55 (Homo sapiens, UniProt Q9Y2T6). The test is described as follows: blockers of GPR55 signalling, imaged – imaging, image-based, counter-screen for GPR35 antagonist project, SAR follow-up (AID 2397). Type of test: functional. Background: A counterscreen serves to expose hits that act by an unwanted route or on another target.
Sequence of G-protein coupled receptor 55 (Q9Y2T6 whole entry): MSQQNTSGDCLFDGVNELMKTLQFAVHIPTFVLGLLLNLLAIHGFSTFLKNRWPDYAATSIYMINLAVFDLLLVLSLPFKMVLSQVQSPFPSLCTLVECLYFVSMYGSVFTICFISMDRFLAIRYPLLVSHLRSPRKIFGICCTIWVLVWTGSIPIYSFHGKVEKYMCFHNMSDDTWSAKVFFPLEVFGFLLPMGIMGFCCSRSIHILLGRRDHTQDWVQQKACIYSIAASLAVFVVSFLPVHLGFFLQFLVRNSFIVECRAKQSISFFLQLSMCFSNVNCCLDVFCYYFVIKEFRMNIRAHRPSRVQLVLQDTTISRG
Test [3] in a line: HEK-293T cell viability reduction – luminescence, B-cell screen hits, cytotoxicity control for BCR NF-kB inhibitor project, dose response (AID 489021).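 Note: HEK-293T cells carrying an NF-kB luciferase reporter; cells exposed to compound for about 14 hours before viability readout.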 It counts as functional, cell-based.
Another test concerns Escherichia coli. The test is described as follows: microbe, parasite or virus in culture.
Test [4] is described as follows: A Cell-Based Confirmatory Screen for Compounds that Inhibit VEEV, TC-83 (8). It counts as functional.
The nature of test [5]: A Cell-Based Confirmatory Screen for Compounds that Inhibit VEEV, TC-83 (6). It counts as functional.
The subject of the next test is Vero. The test is described as follows: cells. Particulars: Chlorocebus sabaeus. It counts as functional, cell-based.
Test [6] in a line: A Cell-Based Confirmatory Screen for Compounds that Inhibit VEEV, TC-83 (7). It counts as functional.
Test [7] in a line: A Cell-Based Confirmatory Screen for Compounds that Inhibit VEEV, TC-83 (3). It counts as functional.
The nature of test [8]: A Cell-Based Counter Screen testing Compounds that Inhibit VEEV TC-83, in strain KU V3526. It counts as functional.
Test [9] in a line: A Cell-Based Confirmatory Screen for Compounds that Inhibit VEEV TC-83 (4). It counts as functional.
Test [10] can be described thus: A Cell-Based Confirmatory Screen for Compounds that Inhibit VEEV, TC-83 (2). Type of test: functional.
The nature of test [11]: restored growth of temperature-sensitive Burl-1 yeast – whole organism, S. cerevisiae, Burl-1 ts mutant, luminescence, counter-screen for SUMOylation pathway inhibitor project, dose response (AID 463199). Type of test: functional.
The target of test [12] is Lysine-specific demethylase 4C (Homo sapiens, UniProt Q9H3R0). The test is described as follows: inhibition of JMJD2C H3K9me3 demethylation – biochemical, DELFIA europium, cherry-picked samples, dose response (AID 488835). It counts as functional.
Sequence of Lysine-specific demethylase 4C (Q9H3R0 whole entry): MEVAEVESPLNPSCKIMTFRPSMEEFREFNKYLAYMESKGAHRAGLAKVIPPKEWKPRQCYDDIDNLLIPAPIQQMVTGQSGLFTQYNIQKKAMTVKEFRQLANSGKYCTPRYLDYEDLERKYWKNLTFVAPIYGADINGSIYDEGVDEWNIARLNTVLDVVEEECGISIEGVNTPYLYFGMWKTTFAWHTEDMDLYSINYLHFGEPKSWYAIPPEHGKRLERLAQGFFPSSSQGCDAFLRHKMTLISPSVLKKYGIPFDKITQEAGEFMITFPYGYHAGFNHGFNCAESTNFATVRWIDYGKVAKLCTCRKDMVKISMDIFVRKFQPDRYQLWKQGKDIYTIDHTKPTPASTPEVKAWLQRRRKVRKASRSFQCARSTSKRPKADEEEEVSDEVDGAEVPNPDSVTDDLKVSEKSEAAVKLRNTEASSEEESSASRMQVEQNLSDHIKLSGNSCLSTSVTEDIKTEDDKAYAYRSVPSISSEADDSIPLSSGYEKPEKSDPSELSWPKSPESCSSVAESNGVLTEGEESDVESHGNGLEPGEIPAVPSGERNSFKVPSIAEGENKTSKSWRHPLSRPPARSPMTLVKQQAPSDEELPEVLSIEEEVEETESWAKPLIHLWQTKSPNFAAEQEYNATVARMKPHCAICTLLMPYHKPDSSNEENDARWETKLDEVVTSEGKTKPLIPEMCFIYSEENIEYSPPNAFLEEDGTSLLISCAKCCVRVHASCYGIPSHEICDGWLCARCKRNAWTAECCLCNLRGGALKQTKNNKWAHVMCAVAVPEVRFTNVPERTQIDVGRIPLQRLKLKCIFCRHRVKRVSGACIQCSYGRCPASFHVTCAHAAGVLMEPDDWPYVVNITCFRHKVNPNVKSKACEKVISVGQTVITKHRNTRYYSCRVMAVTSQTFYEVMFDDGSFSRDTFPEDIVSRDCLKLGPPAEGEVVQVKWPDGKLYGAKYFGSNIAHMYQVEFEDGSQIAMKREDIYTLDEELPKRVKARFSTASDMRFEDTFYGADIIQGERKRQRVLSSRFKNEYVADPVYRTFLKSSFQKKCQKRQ

“And” between values parts separate entries of the source, which are not always exact repeats. Equal values may be shown once. The source made the active and inactive calls. Unless noted, no cut-off for these calls is given here.

By IC50 is commonly meant the concentration at which inhibition is half-maximal. By AC50 is commonly meant the midpoint of the concentration-response curve, whichever way the signal moves.

Sequence of G-protein coupled receptor 35 (Q9HC97 whole entry): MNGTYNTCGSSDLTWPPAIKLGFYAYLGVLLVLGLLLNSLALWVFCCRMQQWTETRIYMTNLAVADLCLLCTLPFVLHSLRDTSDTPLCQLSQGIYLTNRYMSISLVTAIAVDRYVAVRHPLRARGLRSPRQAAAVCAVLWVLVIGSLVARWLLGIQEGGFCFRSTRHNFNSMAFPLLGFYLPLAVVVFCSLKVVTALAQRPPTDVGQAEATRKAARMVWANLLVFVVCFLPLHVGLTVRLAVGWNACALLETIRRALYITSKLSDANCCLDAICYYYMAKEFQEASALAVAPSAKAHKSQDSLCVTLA

As for `COc1ccc(/C=C2/SC(=S)N(CCCC(=O)Nc3ccc(O)cc3)C2=O)cc1`, the IC50 was > 32000 nM (not active) in test [1], > 32000 nM (inactive) in [2] and > 80000 nM (inactive) in test [3].

As for `COC(C(=O)Nc1ccnn1C1CCN(C(=O)c2ccc(C=O)cc2)CC1)c1ccccc1` (centres undefined), in the test on Escherichia coli, the half-maximal activity concentration (AC50) was 26200 nM (active).

On to `CCN1CCN(Cc2nc3ccc([N+](=O)[O-])cc3c(=O)n2-c2ccccc2F)CC1`, for which the IC50 was 810 nM (active) and 695 nM (active) in [4]; 1010 nM (active) in test [5]; 1910 nM (active) in the test with Vero; 810 nM (active) in [6]; < 960 nM (active) in test [7]; 970 nM (active) in test [8]. The IC50 in [9] was 670 nM (active); in [10] it was 970 nM (active).

For the compound `O=C(CNC(=O)c1ccco1)OCC(=O)c1cccc2ccccc12`, the AC50 in test [11] was 54600 nM (active).

With `Cc1ccc(NN=Nc2nc3c(=O)n(C)c(=O)n(C)c3[nH]2)cc1`, the AC50 in [12] is 24700 nM (active).
